Experimental data: patent US12256739B2, “Herbicidal mixtures comprising L-glufosinate or its salt and at least one protoporphyrinogen-IX oxidase inhibitor” (BASF SE, priority 2017, dated 2025)

What was measured:
Experiment in all cases: Post emergence treatment, pot test, herbicidal activity
Type in all cases: in vivo
[1] = test system: ERICA (Erigeron Canadensis, Conyza canadensis); conditions: scale from 0 to 100
Text: (§1) Synergism can be described as an interaction where the combined effect of two or more compounds is greater than the sum of the individual effects of each of the compounds. The pres-ence of a synergistic effect in terms of percent control, between two mixing partners (X and Y) can be calculated using the Colby equation (Colby, S. R., 1967, Calculating Synergistic and Antagonistic Responses in Herbicide Combinations, Weeds, 15, 21-22):
(§2) When the observed combined control effect is greater than the expected (calculated) combined control effect (E), then the combined effect is synergistic.
(§3) However, the weed control afforded by the compounds, mixtures or compositions is not limited to these species. The analysis of synergism or antagonism between the mixtures or compositions was determined using Colby's equation.
(§4) The culture containers used were plastic flowerpots containing loamy sand with approximately 3.0% of humus as the substrate. The seeds of the test plants were sown separately for each species and/or resistant biotype. For the pre-emergence treatment, the active ingredients, which had been suspended or emulsified in water, were applied directly after sowing by means of finely distributing nozzles. The containers were irrigated gently to promote germination and growth and subsequently covered with transparent plastic hoods until the plants had rooted. This cover caused uniform germination of the test plants, unless this had been impaired by the active ingredients. For the post-emergence treatment, the test plants were first grown to a height of 3 to 15 cm, depending on the plant habit, and only then treated with the active ingredients which had been suspended or emulsified in water. For this purpose, the test plants were either sown directly and grown in the same containers, or they were first grown separately as seedlings and transplanted into the test containers a few days prior to treatment. Depending on the species, the plants were kept at 10-25° C. or 20-35° C., respectively. The test period extended to 20 days after treatment. During this time, the plants were tended, and their response to the individual treatments was evaluated. The evaluation was carried out by using a scale from 0 to 100. 100 means no emergence of the plants or complete destruction of at least the above-ground parts, and 0 means no damage, or normal course of growth. Data shown are the mean of two replications.
(§5) • L-Glufosinate: 5% EC formulation • Saflufenacil: 342 g/l SC formulation • Compound II-16: 5% EC formulation (Compound II-16: ethyl[3-[2-chloro-4-fluoro-5-(1-methyl-6-trifluoromethyl-2,4-dioxo-1,2,3,4-tetrahydropyrimidin-3-yl)phenoxy]-2-pyridyloxy]acetate) • Trifludimoxazin: 500 g/l SC formulation • Sulfentrazone: 480 g/l SC formulation

[2] = test system: ECHCG (Echinochloa crus-galli)
Text: as §1, §2, §3, §4, §5

CYPIR (Cyperus iria) = conditions: scale from 0 to 100
Text: as §1, §2, §3, §4, §5

CP(=O)(O)CC[C@H](N)C(=O)O [L-Glufosinate, (2S)-2-amino-4-[hydroxy(methyl)phosphinoyl]butyric acid]
Herbicidal activity against ERICA, Found ([1]; L-Glufosinate alone, 75 g ai/ha): 90
Herbicidal activity against ECHCG, Found ([2]; L-Glufosinate alone, 200 g ai/ha, scale from 0 to 100): 0
Herbicidal activity against ECHCG, Found ([2]; L-Glufosinate alone, 400 g ai/ha, scale from 0 to 100, mean of two replications): 65
Herbicidal activity against CYPIR, Found (CYPIR (Cyperus iria); L-Glufosinate alone, 200 g ai/ha): 0

CC(C)N(C)S(=O)(=O)NC(=O)c1cc(-n2c(=O)cc(C(F)(F)F)n(C)c2=O)c(F)cc1Cl [Saflufenacil, saflufenacil]
Herbicidal activity against ECHCG, Found ([2]; Saflufenacil alone, 0.5 g ai/ha, scale from 0 to 100): 0

Cc1nn(-c2cc(NS(C)(=O)=O)c(Cl)cc2Cl)c(=O)n1C(F)F [Sulfentrazone, sulfentrazone]
Herbicidal activity against ERICA, Found ([1]; Sulfentrazone alone, 1.25 g ai/ha): 0
Herbicidal activity against ERICA, Found ([1]; Sulfentrazone alone, 2.5 g ai/ha): 0

C#CCN1C(=O)C(F)(F)Oc2cc(F)c(-n3c(=O)n(C)c(=S)n(C)c3=O)cc21 [Trifludimoxazin, trifludimoxazin]
Herbicidal activity against ECHCG, Found ([2]; Trifludimoxazin alone, 0.25 g ai/ha, scale from 0 to 100): 10

CCOC(=O)COc1ncccc1Oc1cc(-n2c(=O)cc(C(F)(F)F)n(C)c2=O)c(F)cc1Cl [Compound II-16, ethyl[3-[2-chloro-4-fluoro-5-(1-methyl-6-trifluoromethyl-2,4-dioxo-1,2,3,4-tetrahydropyrimidin-3-yl)phenoxy]-2-pyridyloxy]acetate]
Herbicidal activity against CYPIR, Found (CYPIR (Cyperus iria); Compound II-16 alone, 0.25 g ai/ha): 0
